Source: patent publication US8518678B2, “Strain comprising increased expression of a CFA coding region for butanol production” (Butamax(TM) Advanced Biofuels LLC, priority 2007, dated 2013)
Read-outs that look alike come from different tables or passages of the source.

Tests used:
[1] = tested on: Lactobacillus plantarum PN2001; conditions: shake flask; for PN2001, % Growth inhibition: semi-synthetic LAB medium pH7; for PN2001 (cfa1 plasmid) μ: semi-synthetic LAB medium pH7, 30° C
[2] = tested on: Lactobacillus plantarum PN2014; conditions: shake flask; for PN2014, % Growth inhibition: semi-synthetic LAB medium pH7; for PN2014 (control plasmid) μ: semi-synthetic LAB medium pH7, 30° C
[3] = tested on: L. plantarum PN2001; test: Bioscreen-C growth analysis in MRS medium, PN2001 (cfa1); type: cell-based, Lactobacillus plantarum; conditions: strain PN2001 (cfa1)
Description: (§1) For Bioscreen-C (instrument purchased from Growth Curves USA, Piscataway N.J.) growth curves, the cultures were grown overnight in MRS medium containing 1 μg/ml erythromycin at 30° C. The next day, these were diluted to OD600 of 0.1 in the wells of the Bioscreen plate with MRS medium containing 1 μg/ml erythromycin and either 2.25% (w/v) isobutanol or no isobutanol at 30° C.
(§2) L. plantarum strains PN2001, PN2003, PN2005, PN2010, PN2012, and PN2014 were tested for growth in a Bioscreen-C growth curve machine in the presence of isobutanol as described in General Methods. These growth assays were conducted in MRS medium, which contains 1 g/L polysorbate 80 (commercially also known as Tween® 80) that serves as a source of oleic acid. Erythromycin at 1 μg/ml was added to the medium to maintain the plasmids. It is well known that L. plantarum grown in MRS medium incorporates oleic acid into membrane lipids (Johnsson et al. (1995) Appl. Environ. Microbiol. 61:4497-4499).

[4] = tested on: L. plantarum PN2003; test: Bioscreen-C growth analysis in MRS medium, PN2003 (cfa1); type: cell-based, Lactobacillus plantarum; conditions: strain PN2003 (cfa1), 2.25% isobutanol
Description: as §1, §2

[5] = tested on: L. plantarum PN2005; test: Bioscreen-C growth analysis in MRS medium, PN2005 (cfa2); type: cell-based, Lactobacillus plantarum; conditions: strain PN2005 (cfa2)
Description: as §1, §2

[6] = tested on: L. plantarum PN2010; test: Bioscreen-C growth analysis in MRS medium, PN2010 (cfa2); type: cell-based, Lactobacillus plantarum; conditions: strain PN2010 (cfa2)
Description: as §1, §2

[7] = tested on: L. plantarum PN2012; test: Bioscreen-C growth analysis in MRS medium, PN2012 (control); type: cell-based, Lactobacillus plantarum; conditions: strain PN2012 (no gene on plasmid)
Description: as §1, §2

[8] = tested on: L. plantarum PN2014; test: Bioscreen-C growth analysis in MRS medium, PN2014 (control); type: cell-based, Lactobacillus plantarum; conditions: strain PN2014 (no gene on plasmid)
Description: as §1, §2

[9] = tested on: E. coli strain DPD4655; test: Bioscreen-C growth in LB medium, DPD4655 (cfa overexpression); type: cell-based; conditions: 3 hour and 15 minute time point; for OD600 (+/− st dev): LB medium, 37° C
Description: (§3) E. coli strains DPD4655 and DPD4658 were grown overnight in LB medium containing 100 μg/ml ampicillin at 37° C. The next day, these were diluted to OD600 of 0.1 in the wells of a Bioscreen-C plate (instrument and plates purchased from Growth Curves USA, Piscataway N.J.) with LB medium and either 0.4%, 0.8% (w/v) isobutanol or no isobutanol at 37° C. in triplicate. OD was monitored and the OD at the 3 hour and 15 minute time point was used to calculate the % of growth in the presence of isobutanol as compared with its absence, given in Table 15.

[10] = tested on: E. coli strain DPD4658; test: Bioscreen-C growth in LB medium, DPD4658 (control lacZ overexpression); type: cell-based; conditions: 3 hour and 15 minute time point; for OD600 (+/− st dev): LB medium, 37° C
Description: as §3

[11] = tested on: Lactobacillus plantarum PN1310; test: Change in OD600 in S36 medium, PN1310 (spoT mutant, vector); type: cell-based; conditions: 3% isobutanol
Source text: (§4) The purpose of this Example was to test the effect of a combination of cfa1 overexpression and spoT mutation on the isobutanol tolerance of Lactobacillus plantarum. To create a strain with both gene modifications, pFP996-atpB-cfa1 (described in Example 1; also called pFP996-1)) was transformed into the MS0280 strain (described in Example 4; also called PN1300) creating strain PN1312. For a control strain, pFP996 (described in Example 1) was transformed into MS0280 creating PN1310. Strain PN1312, which contained a multicopy expression plasmid with cfa1, was compared to strain PN1310, which contained the vector control.
(§5) The growth of the strains over time was followed, and tolerance compared as follows. The strains were cultured in S36 medium (contains 10 mM ammonium sulfate, 5 mM potassium phosphate buffer, pH 6.0, 50 mM MES, pH 6.0, 2 mM MgCl2, 0.7 mM CaCl2, 50 μM MnCl2, 1 μM FeCl3, 1 μM ZnCl2, 1.72 μM CuCl2, 2.53 μM CoCl2, 2.42 μM Na2MoO4, 2 μM thiamine hydrochloride, 0.01 M glucose, 0.2% yeast extract and 0.01% casamino acids) overnight at 30° C. under anaerobic conditions. The next day, cultures were started from the overnight cultures in fresh medium, with initial OD600 values of 0.18. These cultures were incubated at 30° C. under anaerobic conditions for 4 hours. During this time, PN1310 reached an OD600 of 0.83, and PN1312 reach an OD600 of 0.61. […]

[12] = tested on: Lactobacillus plantarum PN1312; test: Change in OD600 in S36 medium, PN1312 (spoT mutant, cfa1); type: cell-based; conditions: 3% isobutanol
Source text: as §4, §5

[13] = tested on: Lactobacillus plantarum PN2001; test: microbe, parasite or virus in culture; conditions: Lactiplantibacillus plantarum, PN2001, pH 7, read-out: PN2001, % Growth inhibition
[14] = tested on: Lactobacillus plantarum PN2014; test: microbe, parasite or virus in culture; conditions: Lactiplantibacillus plantarum, PN2014, pH 7, read-out: PN2014, % Growth inhibition
[15] = tested on: butanol non-producing bacterial cells; test: Feeding with fatty acids followed by screening for butanol tolerance; type: cell-based; conditions: fed to cells; among about ten different fatty acids tested
Source text: The discovery came from results of studies on feeding butanol non-producing bacterial cells with different fatty acids followed by screening for butanol tolerance.

[16] = MRS medium (source of oleic acid), 30° C

Structure (SMILES): CCC(C)O (stereo not shown) [2-butanol]
- PN2001, % Growth inhibition ([1]; 2-butanol 3.5% w/v): 54%
- PN2001 (cfa1 plasmid) μ ([1]; 2-butanol 3.5% w/v): 0.132 h⁻¹
- PN2001, % Growth inhibition ([1]; 2-butanol 4.0% w/v): 56%
- PN2001 (cfa1 plasmid) μ ([1]; 2-butanol 4.0% w/v): 0.125 h⁻¹
- PN2001, % Growth inhibition ([1]; 2-butanol 4.25% w/v): 61%
- PN2001 (cfa1 plasmid) μ ([1]; 2-butanol 4.25% w/v): 0.111 h⁻¹
- PN2001, % Growth inhibition ([1]; 2-butanol 4.5% w/v): 62%
- PN2001 (cfa1 plasmid) μ ([1]; 2-butanol 4.5% w/v): 0.108 h⁻¹
- PN2001, % Growth inhibition ([1]; 2-butanol 4.75% w/v): 76%
- PN2001 (cfa1 plasmid) μ ([1]; 2-butanol 4.75% w/v): 0.068 h⁻¹
- PN2001, % Growth inhibition ([1]; 2-butanol 5.0% w/v): 73%
- PN2001 (cfa1 plasmid) μ ([1]; 2-butanol 5.0% w/v): 0.078 h⁻¹
- PN2014, % Growth inhibition ([2]; 2-butanol 3.5% w/v): 48%
- PN2014 (control plasmid) μ ([2]; 2-butanol 3.5% w/v): 0.153 h⁻¹
- PN2014, % Growth inhibition ([2]; 2-butanol 4.0% w/v): 59%
- PN2014 (control plasmid) μ ([2]; 2-butanol 4.0% w/v): 0.123 h⁻¹
- PN2014, % Growth inhibition ([2]; 2-butanol 4.25% w/v): 47%
- PN2014 (control plasmid) μ ([2]; 2-butanol 4.25% w/v): 0.158 h⁻¹
- PN2014, % Growth inhibition ([2]; 2-butanol 4.5% w/v): 79%
- PN2014 (control plasmid) μ ([2]; 2-butanol 4.5% w/v): 0.061 h⁻¹
- PN2014, % Growth inhibition ([2]; 2-butanol 4.75% w/v): 89%
- PN2014 (control plasmid) μ ([2]; 2-butanol 4.75% w/v): 0.034 h⁻¹
- PN2014, % Growth inhibition ([2]; 2-butanol 5.0% w/v): 100%
- PN2014 (control plasmid) μ ([2]; 2-butanol 5.0% w/v): 0.00 h⁻¹

Structure (SMILES): CC(C)CO [isobutanol]
- % Growth inhibition ([3]; 2.25% isobutanol, MRS medium): 32%
- μ (2.25% isobutanol) [3, 16]: 0.32 h⁻¹
- % Growth inhibition [4]: 34%
- % Growth inhibition ([5]; 2.25% isobutanol, MRS medium): 39%
- μ (2.25% isobutanol) [5, 16]: 0.31 h⁻¹
- % Growth inhibition ([6]; 2.25% isobutanol, MRS medium): 39%
- μ (2.25% isobutanol) [6, 16]: 0.33 h⁻¹
- % Growth inhibition ([7]; 2.25% isobutanol, MRS medium): 51%
- μ (2.25% isobutanol) [7, 16]: 0.20 h⁻¹
- % Growth inhibition ([8]; 2.25% isobutanol, MRS medium): 42%
- μ (2.25% isobutanol) [8, 16]: 0.22 h⁻¹
- % OD +isobutanol/−isobutanol ([9]; isobutanol 0.4% (w/v)): 72%
- OD600 (+/− st dev) ([9]; isobutanol 0.4% (w/v)): 0.318 +/− 0.005
- % OD +isobutanol/−isobutanol ([9]; isobutanol 0.8% (w/v)): 50%
- OD600 (+/− st dev) ([9]; isobutanol 0.8% (w/v)): 0.220 +/− 0.006
- % OD +isobutanol/−isobutanol ([10]; isobutanol 0.4% (w/v)): 63%
- OD600 (+/− st dev) ([10]; isobutanol 0.4% (w/v)): 0.259 +/− 0.004
- % OD +isobutanol/−isobutanol ([10]; isobutanol 0.8% (w/v)): 42%
- OD600 (+/− st dev) ([10]; isobutanol 0.8% (w/v)): 0.174 +/− 0.011
- inhibited for growth ([11]; PN1310 (vector alone)): 75%
- 2 h Δ OD ([11]; PN1310 (vector), S36 medium, 30° C, anaerobic): 0.3
- 2 h Δ OD ([12]; PN1312 (cfa1), S36 medium, 30° C, anaerobic): 0.5
- inhibited for growth ([12]; PN1312 (cfa1 overexpression)): 59%
- growth in the presence of isobutanol (FIG. 1A) ([1]; PN2001, 3% isobutanol): grew
- PN2001 (cfa1 plasmid) μ ([1]; isobutanol 2.25% w/v): 0.187 h⁻¹
- PN2001 (cfa1 plasmid) μ ([1]; isobutanol 2.5% w/v): 0.119 h⁻¹
- PN2001 (cfa1 plasmid) μ ([1]; isobutanol 2.75% w/v): 0.104 h⁻¹
- PN2001 (cfa1 plasmid) μ ([1]; isobutanol 3.0% w/v): 0.029 h⁻¹
- PN2001 (cfa1 plasmid) μ ([1]; isobutanol 3.2% w/v): 0.00 h⁻¹
- growth in the presence of isobutanol (FIG. 1B) ([2]; PN2014, 3% isobutanol): did not grow
- PN2014 (control plasmid) μ ([2]; isobutanol 2.25% w/v): 0.170 h⁻¹
- PN2014 (control plasmid) μ ([2]; isobutanol 2.5% w/v): 0.118 h⁻¹
- PN2014 (control plasmid) μ ([2]; isobutanol 2.75% w/v): 0.037 h⁻¹
- PN2014 (control plasmid) μ ([2]; isobutanol 3.0% w/v): 0.00 h⁻¹
- PN2014 (control plasmid) μ ([2]; isobutanol 3.2% w/v): 0.00 h⁻¹
- inhibition at 2.25 % strength [13]: 46%
- inhibition at 2.5 % strength [13]: 66%
- inhibition at 2.75 % strength [13]: 70%
- inhibition at 3 % strength [13]: 92%
- inhibition at 3.2 % strength [13]: 100%
- inhibition at 2.25 % strength [14]: 50%
- inhibition at 2.5 % strength [14]: 66%
- inhibition at 2.75 % strength [14]: 89%
- inhibition at 3 % strength [14]: 100%
- inhibition at 3.2 % strength [14]: 100%

Structure (SMILES): CCCCCCCC[C@@H]1C[C@@H]1CCCCCCCC(=O)O [dihydrosterculic acid]
- effect of feeding on butanol tolerance [15]: increased butanol tolerance
